Measured values published in ChEMBL document CHEMBL1147843, “Synthesis of a novel C2-aryl pyrrolo[2,1-c][1,4]benzodiazepine-5,11-dione library: effect of C2-aryl substitution on cytotoxicity and non-covalent DNA binding” (2007).

Tests used:
[1] = system: DNA; experiment: Binding affinity to calf thymus DNA at 20 uM after 4 hrs by thermal denaturation assay; format: nucleic-acid assay; details: Bos taurus
[2] = system: DNA; experiment: Binding affinity to calf thymus DNA at 20 uM after 72 hrs by thermal denaturation assay; format: nucleic-acid assay; details: Bos taurus
[3] = system: DNA; experiment: Binding affinity to calf thymus DNA at 20 uM after 18 hrs by thermal denaturation assay; format: nucleic-acid assay; details: Bos taurus
[4] = system: NCI; experiment: Growth inhibition of human NCI 60 cells after 48 hrs by sulforhodamine B assay relative to control; format: functional
[5] = system: A498; experiment: Growth inhibition of human A498 cells after 48 hrs by sulforhodamine B assay relative to control; format: functional; details: A498, 48 h
[6] = system: MCF7; experiment: Cytotoxicity against human MCF7 cells assessed as cell growth at 50 uM after 48 hrs by Alamar Blue assay relative to control; format: functional; details: MCF7, 48 h, read-out: Activity
[7] = system: NCI-H460; experiment: Cytotoxicity against human NCI-H460 cells assessed as cell growth at 50 uM after 48 hrs by Alamar Blue assay relative to control; format: functional; details: NCI-H460, 48 h, read-out: Activity
[8] = system: SF-268; experiment: Cytotoxicity against human SF268 cells assessed as cell growth at 50 uM after 48 hrs by Alamar Blue assay relative to control; format: functional; details: SF-268, 48 h, read-out: Activity

## O=C1Nc2ccccc2C(=O)N2C=C(c3cccc([N+](=O)[O-])c3)C[C@@H]12
[1]
  ΔTm: 0.9 °C
[2]
  ΔTm: 1 °C
[3]
  ΔTm: 1 °C

## Cc1ccc2c(c1O)NC(O)C1CC(/C=C/C(N)=O)=CN1C2=O (stereo not drawn) [ANTHRAMYCIN]
[4]
  GI50: 0.029 µM
[5]
  GI50: 0.195 µM

## Nc1ccc(C2=CN3C(=O)c4ccccc4NC(=O)[C@@H]3C2)cc1
[1]
  ΔTm: 1.1 °C
[2]
  ΔTm: 1.1 °C
[3]
  ΔTm: 1.1 °C

## O=C1Nc2ccccc2C(=O)N2C=C(c3ccc(Cl)c(Cl)c3)C[C@@H]12
[4]
  GI50: 46.8 µM
[1]
  ΔTm: 2.1 °C
[2]
  ΔTm: 2.2 °C
[6]
  growth at 50 µM: 51%
[3]
  ΔTm: 2.2 °C
[5]
  GI50: > 50 µM
[7]
  growth at 50 µM: 5%
[8]
  growth at 50 µM: 86%

## O=C1Nc2ccccc2C(=O)N2C=C(c3ccc(Br)cc3)C[C@@H]12
[4]
  GI50: 7.41 µM
[1]
  ΔTm: 2 °C
[2]
  ΔTm: 2.1 °C
[6]
  growth at 50 µM: 61%
[3]
  ΔTm: 2 °C
[5]
  GI50: 0.51 µM
[7]
  growth at 50 µM: 20%
[8]
  growth at 50 µM: 109%

## O=C1Nc2ccccc2C(=O)N2C=C(c3ccccc3)C[C@@H]12
[1]
  ΔTm: 1.5 °C
[2]
  ΔTm: 1.6 °C
[3]
  ΔTm: 1.5 °C

## O=C1Nc2ccccc2C(=O)N2C=C(c3cccc4ccccc34)C[C@@H]12
[4]
  GI50: 14.8 µM
[1]
  ΔTm: 2.3 °C
[2]
  ΔTm: 2.4 °C
[6]
  growth at 50 µM: 42%
[3]
  ΔTm: 2.3 °C
[5]
  GI50: 3.16 µM
[7]
  growth at 50 µM: 29%
[8]
  growth at 50 µM: 73%

## O=Cc1ccc(C2=CN3C(=O)c4ccccc4NC(=O)[C@@H]3C2)cc1
[1]
  ΔTm: 1.5 °C
[2]
  ΔTm: 1.5 °C
[3]
  ΔTm: 1.4 °C
